US20250228873A1, “C25 R AND S ISOMERS OF AMINOSTEROLS AND METHODS OF MAKING AND USING THE SAME” (Enterin, Inc., priority 2022, published 2025)

Tests used:
[1] = Weight loss, 3, 5, 10 mg/kg (FIG. 14); assay type: in vivo, C57bl/6 male mice; details: intraperitoneal 3, 5, 10 mg/kg once weekly over 2 weeks
PS19 mice = assay: Morris water maze, tau Alzheimer's model; assay type: in vivo; details: 2.5 mg/kg/wk i.p. over 6 weeks, vs vehicle treated littermates
Text: The Morris water maze was used to test the effect of ENT-03 on spatial learning and memory deficits in 2 mouse models of familial Alzheimer's disease, hAPP-J20 mice that express a double mutant of the human amyloid precursor protein (Mucke et al., 2000), and PS19 mice that express the P301S mutant of the human microtubule associated protein tau (Yoshiyama et al., 2007).
hAPP-J20 mice expressing human APP bearing the Swedish and Indiana familial mutations (B6.Cg-Zbtb20Tg(PDGFB-APPSwInd)20Lms/2Mmjax, (Mucke et al., 2000)) and PS19 mice expressing the P301S mutation of human tau protein (B6;C3-Tg(Prnp-MAPT*P301S)PS19Vle/J (Yoshiyama et al., 2007)) were purchased from Jackson laboratories and maintained as colonies in the animal facility of the University of Ottawa. Heterozygous hAPP-J20 and PS19 mice were used. Genotypes were verified by PCR using genomic DNA isolated from tail or ear biopsies. […]
The Morris water maze test to analyze the ability of mice to learn and remember the location of a submerged platform in a pool containing opaque water was conducted in the Faculty of Medicine Behavior Core Laboratory at the University of Ottawa. […] On the probe day, crossings of the platform area and target quadrant were counted and swimming speed was measured using Ethovision automated video tracking software (Noldus).

## CC(CCC[C@@H](C)[C@H]1CCC2C3C(CC[C@@]21C)[C@@]1(C)CC[C@H](NCCCNCCCCNCCCN)C[C@@H]1C[C@H]3O)C(=O)O (single isomer, unassigned) [ENT-03]
[1]
  clinical appearance other than weight loss: appeared clinically normal
  effect on weight: dose dependent weight loss
PS19 mice
  learning during the training phase: improved
  memory on the probe day: improved
